According to patent publication US20220282237A1, “NOVEL FUCOSE ISOMERASE AND FUCOSE PRODUCTION METHOD USING SAME” (Korea University Research and Business Foundation, priority 2019, published 2022):
Read-outs that look alike come from different tables or passages of the source.

B1: L-fucose isomerase derived from Raoultella sp. KDH 14 strain (enzyme)
chain: MKRISLPKIGIRPVIDGRRMGVRESLEAQTMNMAKATAALISEKLRHACGAQIECVIADTCIAGMAESAACEEKFSRQNVGVTITVTPCWCYGSETIDMDPLRPKAIWGFNGTERPGAVYLAAALAAHSQKGIPAFSIYGHDVQDADDTTIPADVEEKLLRFARAGLAVASMKGKSYLSVGGVSMGIAGSIVDHNFFESWLGMKVQAVDMTELRRRIDQKIYDEVELEMALAWADKNFRYGEDQNAQHYKRDEEQSRAVLKESLLMAMCIRDMMQGNEKLAEKGLLEESLGYNAIAAGFQGQRHWTDQYPNGDTAEALLNSSFDWNGVREPFVVATENDSLNGVAMLMGHQLTGTAQVFADVRTYWSPDAVERVTGQPLTGLAEHGIIHLINSGSAALDGSCQQRDEEGKPTMKPHWEISQKEADACLAATEWCPAIHEYFRGGGYSSRFLTEGGVPFTMTRVNLIKGLGPVLQIAEGWSVELPKAMHDQLDARTNSTWPTTWFAPRLTGKGPFADVYSVMANWGANHGVLTIGHVGADFITLAAMLRIPVCMHNVEEGKIYRPSSWSAHGMDTEGQDYRACQNYGPLYKR
notes: also called RdFucI; Rd FucI
B2: RdFucI: L-fucose isomerase of Raoultella sp. KDH 14, amino acid sequence SEQ ID NO: 1, 591 amino acids (protein)
chain: B1 chain
modifications: Raoultella sp. KDH 14

Tests used:
RdFucI [1] = format: biochemical, Raoultella sp. KDH 14
RdFucI [2] = assay: Substrate specificity of RdFucI; format: biochemical, Raoultella sp. KDH 14; conditions: aldose and ketose substrates tested
From the text: In general, sugar isomerases show reactivity for various sugars. As a result of testing with various aldoses (L-fucose, D-arabinose, D-altrose, D-galactose, D-mannose and D-glucose) and ketose substrates (L-fuculose, D-ribulose, D-psicose, D-tagatose and D-fructose), the highest activity was shown against L-fuculose (115.3 U/mg) and D-ribulose (127.3 U/mg), showing much higher activities compared to activities for the other tested aldose and ketose substrates.

[3] = pH effect on RdFucI activity for fuculose; format: biochemical, Raoultella sp. KDH 14
[4] = biological target: the molecule itself; assay: crystal structure, self-association of subunits
[5] = Reversible reaction between L-fucose and L-fuculose by RdFucI; format: biochemical, Raoultella sp. KDH 14; conditions: 10 mM substrate, 20 mM sodium phosphate pH 7, 1.5 μg RdFucI, 30° C., 1 mM MnCl2
Description: In order to identify what kind of reaction RdFucI favored in a reaction between fucose and fuculose, a reversible reaction of the recombinant enzyme was investigated over time. For this purpose, 10 mM L-fucose (FIG. 4a) or L-fuculose (FIG. 4b) included in 20 mM sodium phosphate (pH7) was used as a substrate, and was each reacted with 1.5 μg of RdFucI at 30° C. in the presence of 1 mM MnCl2, and L-fucose was experimentally quantified. In contrast, L-fuculose was expressed as a calculated value.

[6] = Temperature effect on RdFucI activity for fuculose; format: biochemical, Raoultella sp. KDH 14
From the text: (80% or more of the maximum activity) (FIG. 5a).

[7] = effect of metal ion on RdFucI activity, fuculose as substrate, Control = 100

Row | Molecule | effect of metal ion on enzyme activity (in words) (RdFucI [1]; RdFucI) | Relative activity (%) (RdFucI [1]; [7]) | further results
1 | [Ca+2].[Cl-].[Cl-] [CaCl2] | inhibit the enzyme activity | 64 ± 8 | –
2 | [Cl][Cd][Cl] [CdCl2] | increase the enzyme activity | 183 ± 9 | –
3 | [Cl-].[Cl-].[Co+2] [CoCl2] | – | – | Relative activity (%) (RdFucI [1]): 353 ± 83%; effect of metal ion on enzyme activity (in words) (RdFucI [1]): increase the enzyme activity
4 | [Cl-].[Cs+] [CsCl2] | – | 101 ± 16 | –
5 | [Cl][Cu][Cl] [CuCl2] | inhibit the enzyme activity | 58 ± 7 | –
6 | O=C(CO)[C@H](O)[C@H](O)CO [D-ribulose] | – | – | activity of RdFucI against substrate (RdFucI [2]): 127.3 U/mg
7 | O=C(O)CN(CCN(CC(=O)O)CC(=O)O)CC(=O)O [EDTA] | – | – | Relative activity (%) (RdFucI [1]): 77 ± 12%
8 | [Cl][Fe]([Cl])[Cl] [FeCl3] | inhibit the enzyme activity | 74 ± 3 | –
9 | C[C@H](O)[C@@H](O)[C@@H](O)C(=O)CO [L-fuculose] | – | – | activity of RdFucI against substrate (RdFucI [2]): 115.3 U/mg
10 | O=S(=O)([O-])[O-].[Li+].[Li+] [LiSO4] | – | 101 ± 15 | –
11 | [Cl-].[Cl-].[Mg+2] [MgCl2] | increase the enzyme activity | 533 ± 31 | –
12 | [Cl][Mn][Cl] [MnCl2] | increase the enzyme activity | 738 ± 70 | increase of enzyme activity in the presence of the metal ion (RdFucI [1]; RdFucI, fuculose as substrate): about 7 fold
13 | [Cl][Ni][Cl] [NiCl2] | – | 91 ± 13 | –
14 | [Cl-].[Cl-].[Zn+2] [ZnCl2] | increase the enzyme activity | 159 ± 4 | –
15 | Tris-HCl [Tris-HCl buffer] | – | – | RdFucI activity in the buffer versus other buffer types at the same pH (in words) ([3]; pH 7, 8 and 9, 50 mM, 40° C.): much lower
16 | B1 | – | – | binding result [4]: binds
17 | B2 | – | – | relative maximum activity at pH 6 to 11 ([3]; sodium acetate, sodium phosphate and glycine-NaOH buffers): ≥ 70%; reaction rate of reverse reaction (L-fuculose to L-fucose) versus forward reaction [5]: about 5 fold; relative activity, of the maximum activity, at 30, 40 and 50° C. ([6]; 10 mM substrate, 1.5 μg enzyme, pH 7): ≥ 80%; temperature of highest activity ([6]; 10 mM substrate, 1.5 μg enzyme, pH 7, 10 to 80° C.): 40 °C; enzyme activity out of the 30 to 50° C. range ([6]; L-fuculose as substrate): less than 50%
